Test results from patent publication US6423689B1, “Peptidyl calcium channel blockers” (Warner-Lambert Company, priority 1997, dated 2002).

Tests used:
[1] = system: Na+ channels in superior cervical ganglion (SCG) neurons; experiment: Whole-cell voltage clamp, Na+ current in SCG neurons; type: cell-based, rat
Method: (§1) Electrophysiological techniques were used to measure the effects of experimental compounds on voltage-gated Ca^2+, Na^+ and K^+ channels. […] Sodium and potassium channel currents were measured from acutely dissociated SCG neurons.
(§2) Dissociation of the neurons from the ganglia was accomplished using a 30 to 45 minute treatment in 0.25% trypsin, similar to methods outlined in Higgins, et al. [see Higgins D., et al. “Tissue culture of mammalian autonomic neurons.” In Banker G. and Goslin K. (Eds), Culturing Nerve Cells, Cambridge, Mass., MIT Press (1991)].
(§3) Ca^2+, Na^+ and K^+ channel currents in SCG neurons were measured using conventional single electrode whole-cell voltage-clamp techniques, outlined in Hamill, et al., (see Hamill O.P., et al. “Improved patch-clamp techniques for high resolution current recordings from cells and cell-free membrane patches”. Pflugers Arch. 1981;391:85-100) For Ca^2+ channel experiments, the external bathing solution contained tetraethylammonium chloride (100 mM), choline chloride (52 mM), NaCl (15 mM), HEPES (10 mM), glucose (5.6 mM), CaCl2 (2 mM), and MgCl2 (0.8 mM) pH 7.35 with KOH; with the internal pipette solution containing cesium methane sulfonate (140 mM), EGTA (10 mM), and HEPES (10 mM), supplemented with 5 mM Mg^2+ -ATP on the day of the experiment, pH 7.4 with CsOH. For Na^+ and K^+ channel experiments, the external bathing solution contained NaCl (150 mM), KCl (5 mM), MgCl2 (1.1 mM), CaCl2 (2.6 mM), Na-HEPES (10 mM), and glucose (10 mM), pH 7.4; with the internal pipette solution containing KCl (80 mM), K-gluconate (50 mM), HEPES (10 mM), and EGTA (10 mM), pH 7.4 with KOH. Experimental compounds were diluted into the external solution and applied to the soma of cells by local perfusion from large diameter (20-50 μm) glass micropipettes or from a U-tube applicator.
(§4) For Na^+ and K^+ channel currents, following the determination of the I/V relationship for each cell in control solution, currents were evoked from a holding potential between −65 and −55 mV by stepping every 10 sec to a test potential of either 0 mV for Na^+ or +50 mV for K^+ current for a duration of 35 msec. Peak inward current was measured for Na^+ and sustained current for K^+ channel currents. […] Test compounds were applied until steady-state block was achieved. Data were expressed as percent inhibition of control amplitudes for Na^+ and K^+ channel currents.

[2] = system: K+ channels in superior cervical ganglion (SCG) neurons; experiment: Whole-cell voltage clamp, K+ current in SCG neurons; type: cell-based, rat
Method: as §1, §2, §3, §4

[3] = target: T1, N-type Ca2+ channels in superior cervical ganglion (SCG) neurons (Rattus norvegicus, UniProt Q02294); experiment: Whole-cell voltage clamp, N-type Ca2+ current in SCG neurons; type: cell-based
T1 construct: from tissue
T1 sequence (Q02294 whole entry): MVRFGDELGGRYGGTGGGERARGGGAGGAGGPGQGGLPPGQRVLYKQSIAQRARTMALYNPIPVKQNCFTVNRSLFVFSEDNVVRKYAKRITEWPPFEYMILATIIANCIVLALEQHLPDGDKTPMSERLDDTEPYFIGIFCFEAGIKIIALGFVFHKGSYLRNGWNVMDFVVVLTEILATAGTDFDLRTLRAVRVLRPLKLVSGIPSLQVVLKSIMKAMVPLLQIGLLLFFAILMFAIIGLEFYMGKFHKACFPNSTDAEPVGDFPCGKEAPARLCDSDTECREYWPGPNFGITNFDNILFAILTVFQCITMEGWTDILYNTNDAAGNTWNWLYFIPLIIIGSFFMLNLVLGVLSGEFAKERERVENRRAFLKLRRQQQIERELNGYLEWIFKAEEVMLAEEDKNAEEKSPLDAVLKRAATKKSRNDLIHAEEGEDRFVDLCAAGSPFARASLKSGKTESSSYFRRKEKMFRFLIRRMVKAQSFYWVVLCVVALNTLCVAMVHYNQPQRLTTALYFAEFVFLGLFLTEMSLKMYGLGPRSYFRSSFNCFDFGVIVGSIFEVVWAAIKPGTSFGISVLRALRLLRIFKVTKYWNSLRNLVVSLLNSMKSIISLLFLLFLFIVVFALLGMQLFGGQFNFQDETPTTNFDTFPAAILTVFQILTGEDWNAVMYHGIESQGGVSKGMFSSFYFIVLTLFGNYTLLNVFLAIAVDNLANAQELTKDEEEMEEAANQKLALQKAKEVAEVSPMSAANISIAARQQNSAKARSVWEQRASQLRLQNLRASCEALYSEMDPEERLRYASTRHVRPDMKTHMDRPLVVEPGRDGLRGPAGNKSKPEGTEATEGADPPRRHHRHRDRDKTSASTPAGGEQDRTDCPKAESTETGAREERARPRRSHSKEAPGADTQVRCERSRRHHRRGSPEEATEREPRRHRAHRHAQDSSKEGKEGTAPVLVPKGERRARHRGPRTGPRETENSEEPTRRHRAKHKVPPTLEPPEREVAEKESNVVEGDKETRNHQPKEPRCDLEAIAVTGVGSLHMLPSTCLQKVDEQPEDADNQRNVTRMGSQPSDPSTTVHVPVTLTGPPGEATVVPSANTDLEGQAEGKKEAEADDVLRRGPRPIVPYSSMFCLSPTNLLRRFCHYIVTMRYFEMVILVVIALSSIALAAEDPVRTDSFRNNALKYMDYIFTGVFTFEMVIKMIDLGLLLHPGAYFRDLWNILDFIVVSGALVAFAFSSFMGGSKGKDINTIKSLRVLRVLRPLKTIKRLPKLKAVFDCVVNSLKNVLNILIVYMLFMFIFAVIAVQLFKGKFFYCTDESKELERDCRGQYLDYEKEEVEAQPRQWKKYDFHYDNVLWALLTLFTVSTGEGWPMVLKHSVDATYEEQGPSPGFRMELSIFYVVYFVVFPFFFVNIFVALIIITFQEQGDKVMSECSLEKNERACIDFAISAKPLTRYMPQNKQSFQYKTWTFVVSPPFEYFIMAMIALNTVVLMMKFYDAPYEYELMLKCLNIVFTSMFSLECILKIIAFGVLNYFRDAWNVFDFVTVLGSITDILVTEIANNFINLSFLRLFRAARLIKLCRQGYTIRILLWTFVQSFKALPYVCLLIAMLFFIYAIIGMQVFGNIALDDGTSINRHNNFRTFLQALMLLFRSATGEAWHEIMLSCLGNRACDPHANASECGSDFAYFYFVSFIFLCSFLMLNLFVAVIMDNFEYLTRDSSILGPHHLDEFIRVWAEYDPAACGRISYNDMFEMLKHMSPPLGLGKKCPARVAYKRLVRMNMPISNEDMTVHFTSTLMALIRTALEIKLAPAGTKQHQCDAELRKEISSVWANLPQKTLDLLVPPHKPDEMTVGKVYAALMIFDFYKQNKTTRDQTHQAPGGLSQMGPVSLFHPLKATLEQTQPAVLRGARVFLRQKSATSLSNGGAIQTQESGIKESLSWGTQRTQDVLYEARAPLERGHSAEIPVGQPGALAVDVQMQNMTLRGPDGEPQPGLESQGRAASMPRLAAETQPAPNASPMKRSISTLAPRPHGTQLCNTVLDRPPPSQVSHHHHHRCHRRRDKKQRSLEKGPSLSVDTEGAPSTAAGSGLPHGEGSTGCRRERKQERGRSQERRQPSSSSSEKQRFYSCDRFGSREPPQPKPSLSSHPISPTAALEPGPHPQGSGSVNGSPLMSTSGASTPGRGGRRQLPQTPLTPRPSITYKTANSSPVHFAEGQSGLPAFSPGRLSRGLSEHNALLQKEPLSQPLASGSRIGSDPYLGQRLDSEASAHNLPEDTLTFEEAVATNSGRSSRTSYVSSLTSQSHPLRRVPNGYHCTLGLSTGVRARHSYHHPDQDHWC
T1 sequence (P54290 25-944 partner limits assumed): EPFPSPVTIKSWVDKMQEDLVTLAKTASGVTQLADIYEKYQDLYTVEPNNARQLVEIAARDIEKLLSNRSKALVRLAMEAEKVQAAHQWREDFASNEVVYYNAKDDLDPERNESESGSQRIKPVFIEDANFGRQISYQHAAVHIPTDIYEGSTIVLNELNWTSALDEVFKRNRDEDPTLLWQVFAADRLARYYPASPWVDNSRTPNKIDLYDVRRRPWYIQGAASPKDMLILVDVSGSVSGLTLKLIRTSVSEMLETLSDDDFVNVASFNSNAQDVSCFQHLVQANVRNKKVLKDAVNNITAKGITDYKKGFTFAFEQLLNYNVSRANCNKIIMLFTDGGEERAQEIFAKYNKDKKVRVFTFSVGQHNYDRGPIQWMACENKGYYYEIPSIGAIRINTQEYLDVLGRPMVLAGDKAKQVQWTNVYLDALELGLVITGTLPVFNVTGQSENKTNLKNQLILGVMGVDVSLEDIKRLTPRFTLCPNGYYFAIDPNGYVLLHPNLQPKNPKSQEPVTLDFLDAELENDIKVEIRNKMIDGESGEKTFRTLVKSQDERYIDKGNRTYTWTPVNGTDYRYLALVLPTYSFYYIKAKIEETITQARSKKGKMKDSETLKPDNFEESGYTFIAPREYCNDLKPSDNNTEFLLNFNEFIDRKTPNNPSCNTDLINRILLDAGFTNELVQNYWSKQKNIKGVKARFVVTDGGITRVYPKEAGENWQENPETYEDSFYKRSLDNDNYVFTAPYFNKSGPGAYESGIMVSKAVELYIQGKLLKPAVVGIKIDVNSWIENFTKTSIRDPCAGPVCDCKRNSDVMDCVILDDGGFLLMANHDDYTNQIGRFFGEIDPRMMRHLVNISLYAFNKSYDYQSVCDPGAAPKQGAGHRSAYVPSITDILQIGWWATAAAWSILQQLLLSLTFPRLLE
T1 sequence (P54290 945-1091 partner limits assumed): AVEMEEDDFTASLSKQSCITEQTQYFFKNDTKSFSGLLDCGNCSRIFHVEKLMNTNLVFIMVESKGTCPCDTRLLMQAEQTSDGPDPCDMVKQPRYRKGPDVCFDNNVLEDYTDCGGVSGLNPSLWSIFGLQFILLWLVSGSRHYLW
T1 sequence (P54287 whole entry partner): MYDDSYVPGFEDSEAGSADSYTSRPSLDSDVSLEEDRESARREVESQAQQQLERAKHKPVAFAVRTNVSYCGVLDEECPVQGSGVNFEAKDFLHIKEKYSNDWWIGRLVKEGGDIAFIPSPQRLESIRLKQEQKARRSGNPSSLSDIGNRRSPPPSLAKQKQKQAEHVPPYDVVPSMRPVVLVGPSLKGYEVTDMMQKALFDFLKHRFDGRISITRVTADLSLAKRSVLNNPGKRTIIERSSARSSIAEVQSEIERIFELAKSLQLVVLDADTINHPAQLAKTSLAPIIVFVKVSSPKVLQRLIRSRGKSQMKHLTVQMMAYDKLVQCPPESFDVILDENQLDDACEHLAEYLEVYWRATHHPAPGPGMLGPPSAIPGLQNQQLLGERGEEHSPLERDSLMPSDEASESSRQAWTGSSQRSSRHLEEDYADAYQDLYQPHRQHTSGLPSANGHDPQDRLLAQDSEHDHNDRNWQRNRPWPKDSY
Method: as §1, §2, §3
After obtaining a whole-cell recording, Ca^2+ channels were elicited by stepping to test potentials between −40 and +20 mV for 120 msec from the holding potential of −90 mV to determine if the amplitude of the current and clamp control were adequate for evaluation of drug effects. Ca^2+ channel currents were evoked by stepping from a holding potentials between −65 mV and −−55 mV to a test potential of +20 mV for 150 msec every 40 seconds. The amplitude of the Ca^2+ channel currents were compared before and during drug application and drug effects expressed as percent inhibition of the amplitude of control currents.

[4] = target: T2, N-type Ca2+ channels in IMR-32 cells (Homo sapiens, UniProt Q00975); experiment: Inhibition of N-type calcium flux in IMR-32 cells (Indo-1 fluorescence, nitrendipine present); type: cell-based; conditions: for IC50: IMR-32 cells, 5 μM nitrendipine, K+ depolarization
T2 construct: host or cells: IMR-32 cells, differentiated with dibutyryl cAMP and bromodeoxyuridine
Outline: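 With L-type flux blocked by 5 μM nitrendipine, N-type Ca2+ entry was read as the Indo-1 emission ratio (400/490 nm, excitation 350 nm) at 30° C after KCl depolarization.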

Inhibition of N-type Ca2+ Current, % Inhibition at 10 μM [3] [%]	Inhibition of Calcium Flux in IMR-32 Cells % Inhibition at 1 μM [4] [%]	Inhibition of Calcium Flux in IMR-32 Cells % Inhibition at 10 μM [4] [%]	IC50 [4] [nM]	Compound	Inhibition of Na+ Current, % Inhibition at 10 μM [1] [%]	Inhibition of K+ Current, % Inhibition at 10 μM [2] [%]	also measured
81	28			CC(C)C[C@H](NC(=O)N1CCN(C)CC1)C(=O)N[C@@H](Cc1ccc(OCc2ccccc2)cc1)C(=O)OC(C)(C)C (relative stereo) [Example 9, [S-(R*,R*)]-3-(4-Benzyloxy-phenyl)-2-{4-methyl-2-[(4-methyl-piperazine-1-carbonyl)-amino]-pentanoylamino}-propionic acid tert-butyl ester]	44	61	
45	77	99	270	CCCCNC(=S)N[C@@H](CC(C)C)C(=O)N[C@@H](Cc1ccc(OCc2ccccc2)cc1)C(=O)OC(C)(C)C (relative stereo) [Example 49, [S-(R*,R*)]-3-(4-Benzyloxy-phenyl)-2-[2-(3-butyl-thioureido)-4-methyl-pentanoylamino]-propionic acid tert-butyl ester]	6	−3	
61			2500	CC(C)(C)NC(=O)[C@H](Cc1ccc(OCc2ccccc2)cc1)NC(=O)[C@@H]1CC2CCCCC2N1C(=O)N1CCCCCC1 (relative stereo) [Example 161, [S-(R*,R*)]-1-(Azepane-1-carbonyl)-octahydro-indole-2-carboxylic acid [2-(4-benzyloxy-phenyl)-1-tert-butylcarbamoyl-ethyl]-amide]	42	68	IC50 ([1]; read-out: Inhibition of Na+ Current IC50): 14 µM; IC50 ([2]; read-out: Inhibition of K+ Current IC50): 5.45 µM
81	55		820	CC(C)C[C@H](NC(=O)N1CCCCCC1)C(=O)N[C@@H](Cc1ccc(OCc2ccccc2)cc1)C(=O)N1CCN(Cc2ccccc2)CC1 (relative stereo) [Example 180, [S-(R*,R*)]-Azepane-1-carboxylic acid {1-[1-(4-benzyloxy-benzyl)-2-(4-benzyl-piperazin-1-yl)-2-oxo-ethylcarbamoyl]-3-methyl-butyl}-amide]	20	60	
			1200	CC(C)C[C@H](NC(=O)N1CCCCCC1)C(=O)N[C@@H](Cc1ccc(OCc2ccccc2)cc1)C(=O)N1CCN(C(c2ccccc2)c2ccccc2)CC1 [Example 270, [S-(R*,R*)]-Azepane-1-carboxylic acid {1-[2-(4-benzhydryl-piperazin-1-yl)-1-(4-benzyloxy-benzyl)-2-oxo-ethylcarbamoyl]-3-methyl-butyl}-amide]			

Continued, molecule first:

Compound	Inhibition of N-type Ca2+ Current, % Inhibition at 10 μM [3] [%]	Inhibition of Calcium Flux in IMR-32 Cells % Inhibition at 1 μM [4] [%]	Inhibition of Calcium Flux in IMR-32 Cells % Inhibition at 10 μM [4] [%]	IC50 [4] [nM]	Inhibition of Na+ Current, % Inhibition at 10 μM [1] [%]	Inhibition of K+ Current, % Inhibition at 10 μM [2] [%]	also measured
C[C@H](NC(=O)N1CCCCCC1)C(=O)N[C@@H](Cc1ccc(OCc2ccccc2)cc1)C(=O)OC(C)(C)C (relative stereo) [Example 7, [S-(R*,R*)]-2-{2-[(Azepane-1-carbonyl)-amino]-propionylamino}-3-(4-benzyloxy-phenyl)-propionic acid tert-butyl ester]	81	44	96	1500	52	70	IC50 ([3]; read-out: Inhibition of N-type Ca2+ Current IC50): 2300 nM
CC(C)C[C@H](NS(=O)(=O)c1ccc([N+](=O)[O-])cc1)C(=O)N[C@@H](Cc1ccc(OCc2ccccc2)cc1)C(=O)OC(C)(C)C (relative stereo) [Example 39, [S-(R*,R*)]-3-(4-Benzyloxy-phenyl)-2-[4-methyl-2-(4-nitro-benzenesulfonylamino)-pentanoylamino]-propionic acid tert-butyl ester]		61	91	520	28	22	
CC(C)C[C@H](NC(=O)c1ccccc1)C(=O)N[C@@H](Cc1ccc(OCc2ccccc2)cc1)C(=O)OC(C)(C)C (relative stereo) [Example 130, [S-(R*,R*)]-2-(2-Benzoylamino-4-methyl-pentanoylamino)-3-(4-benzyloxy-phenyl)-propionic acid tert-butyl ester]	−7		78				
CC(C)C[C@H](NC(=O)N1CCCCCC1)C(=O)N[C@H](Cc1ccc(OCc2ccccc2)cc1)C(=O)OC(C)(C)C [Example 2, 2(R)-{2(S)-[(Azepane-1-carbonyl)-amino]-4-methyl-pentanoylamino}-3-(4-benzyloxy-phenyl)-propionic acid tert-butyl ester]				1700	35	41	inhibition at 10 µM [3]: 32%; inhibition at 1 µM ([4]; IMR-32): 38%; inhibition at 10 µM ([4]; IMR-32): 90%
CC(C)C[C@H](NC(=O)N1CCCCCC1)C(=O)N[C@@H](Cc1ccc(OCc2ccccc2)cc1)C(=O)NCCc1ccco1 [Example 174, [S-(R*,R*)]-Azepane-1-carboxylic acid {1-[2-(4-benzyloxy-phenyl)-1-(2-furan-2-ylethylcarbamoyl)-ethylcarbamoyl]-3-methyl-butyl}-amide]				1400	14	32	
CC(C)C[C@H](NC(=O)N1CCCCCC1)C(=O)N[C@@H](Cc1ccc(OCc2ccccc2)cc1)C(=O)N[C@H]1CCN(Cc2ccccc2)C1 [Example 194, Azepane-1-carboxylic acid {(S)-1-[(S)-2-(4-benzyloxy-phenyl)-1-[1-benzyl-(S)-pyrrolidin-3-ylcarbamoyl]-ethylcarbamoyl]-3-methyl-butyl}-amide]				450			inhibition at 10 µM [3]: 84%
CC(C)C[C@H](NC(=O)N1CCCCCC1)C(=O)N[C@@H](Cc1ccc(OCc2ccccc2)cc1)C(=O)NC1CCN(Cc2ccccc2)CC1 [Example 271, [S-(R*,R*)]-Azepane-1-carboxylic acid {1-[2-(4-benzyloxy-phenyl)-1-(1-benzyl-piperidin-4-ylcarbamoyl)-ethylcarbamoyl]-3-methyl-butyl}-amide]				840			inhibition at 1 µM ([4]; IMR-32): 70%
